Experimental data from patent US20140348901A1, “COMBINATORIAL METHODS AND COMPOSITIONS FOR TREATMENT OF MELANOMA” (The Penn State Research Foundation, priority 2004, published 2014).

Columns and labels:
[1] = system: 1205 Lu cells; assay: Pretreatment of mice with BAY 43-9006, 1205 Lu tumor development; type: in vivo, nude mice; settings: 50 mg/kg i.p., 1205 Lu (not shown)
Procedure: (§1) Effect of BAY 43-9006 on tumor development was measured by subcutaneously injecting 5×10^6 UACC 903 or 1×10^6 1205 Lu cells into nude mice. After 6 days when a small tumor (50-100 mm^3) had developed, the mice received an intra peritoneal injection on alternate days consisting of 50 μl of vehicle (DMSO), or the drug BAY 43-9006 at concentrations of 10, 50 or 100 mg/kg body weight for UACC 903 cells and 50 mg/kg body weight for 1205 Lu cells. For studies involving pretreatment with BAY 43-9006, 50 mg/kg body weight of drug was intra peritoneally injected twice (−4 and −2 days) prior to subcutaneous injection of UACC 903 or 1205 Lu cells. The mechanism by which pharmacological inhibition of mutant ^V599EB-Raf delays tumor development was identified by comparing tumors of the same size developing in parallel. This was achieved by subcutaneous injection of 5×10^6 UACC 903 cells followed at day 6 by intra peritoneal injection every 2 days with 50 mg/kg of BAY 43-9006. For temporal and spatial matching of control DMSO with drug treated tumors, either 1×10^6, 2.5×10^6 or 5×10^6 million UACC 903 cells were subcutaneously injected and from day 6 treated intra peritoneally with DMSO vehicle every 2 days. Drug or vehicle treated tumors of the same size developing in parallel were harvested at days 9, 11, 13 and 15 for comparison. […]

[2] = system: UACC 903 tumors; assay: Apoptosis, cell proliferation and vessel density in size- and time-matched UACC 903 tumors treated with BAY 43-9006; type: in vivo, nude mice
Procedure: (§2) Effect of BAY 43-9006 on tumor development was measured by subcutaneously injecting 5×10^6 UACC 903 or 1×10^6 1205 Lu cells into nude mice. After 6 days when a small tumor (50-100 mm^3) had developed, the mice received an intra peritoneal injection on alternate days consisting of 50 μl of vehicle (DMSO), or the drug BAY 43-9006 at concentrations of 10, 50 or 100 mg/kg body weight for UACC 903 cells and 50 mg/kg body weight for 1205 Lu cells. For studies involving pretreatment with BAY 43-9006, 50 mg/kg body weight of drug was intra peritoneally injected twice (−4 and −2 days) prior to subcutaneous injection of UACC 903 or 1205 Lu cells. The mechanism by which pharmacological inhibition of mutant ^V599EB-Raf delays tumor development was identified by comparing tumors of the same size developing in parallel. This was achieved by subcutaneous injection of 5×10^6 UACC 903 cells followed at day 6 by intra peritoneal injection every 2 days with 50 mg/kg of BAY 43-9006. For temporal and spatial matching of control DMSO with drug treated tumors, either 1×10^6, 2.5×10^6 or 5×10^6 […] UACC 903 cells were subcutaneously injected and from day 6 treated intra peritoneally with DMSO vehicle every 2 days. Drug or vehicle treated tumors of the same size developing in parallel were harvested at days 9, 11, 13 and 15 for comparison. At each time point, tumors from mice treated with vehicle or drug were harvested for analysis of cell proliferation, apoptosis and vascular development, as described previously (Stahl J M et al. Cancer Res. 64: 7002-10 (2004), Stahl J M et al. Cancer Res. 63: 2881-90 (2003)).
Apoptosis measurements on formalin-fixed, paraffin-embedded tumor sections were undertaken using the TUNEL TMR Red Apoptosis kit from Roche (Manheim, Germany), as described previously (Stahl J M et al. Cancer Res. 64: 7002-10 (2004), Stahl J M et al. Cancer Res. 63: 2881-90 (2003)). Cell Proliferation rates in formalin-fixed tumor sections were measured using the RPN 20 cell proliferation kit (Amersham Biosciences, Piscataway, N.J.) that utilizes BrdU incorporation and immunocytochemistry. […] The number of BrdU stained cells were scored as the percentage of total cells of tumors treated with BAY 43-9006 or vehicle (DMSO). Quantification of vessels density using a purified rat anti-mouse CD31 (PECAM-1) monoclonal antibody (Pharmingen, San Diego, Calif.) has been described previously (Stahl J M et al. Cancer Res. 64: 7002-10 (2004), Stahl J M et al. Cancer Res. 63: 2881-90 (2003)). The proportional area of the tumors occupied by the vessels over the total area was calculated using the IP Lab imaging software program. For all tumor analyses, a minimum of 6 different tumors with 4-6 fields per tumor was analyzed and results represented as the average±SEM.

[3] = system: mutant ^V599EB-Raf protein signaling; assay: pMek and pErk Western blot in UACC 903 cells with increasing BAY 43-9006; type: cell-based, human
[4] = system: wild type or mutant ^V599EB-Raf protein; assay: pMek and pErk in HEK 293T cells expressing HA-tagged wild type or mutant B-Raf exposed to BAY 43-9006; type: cell-based, human; settings: 5 uM, 2 hours
Procedure: The BAY 43-9006 compound used for these studies was synthesized as described in ref (Bankston D et al. Organic Process Res Dev. 6: 777-81 (2002)). To evaluate the inhibitory effects of BAY 43-9006 on wild type and mutant B-Raf, HEK 293T cells were transfected with HA-tagged wild type B-RAF, mutant ^V599EB-RAF or vector (pcDNA3) using Calcium Phosphate as described previously (Robertson G P et al. Proc Natl Acad Sci USA. 95: 9418-23 (1998)). Following transfection (72 hours) media was replaced with DMEM media supplemented with 10% FBS and 5 uM BAY 43-9006 or DMSO vehicle. Two hours later, protein lysates were collected for Western blot analysis. Levels of phosphorylated Mek and Erk were quantified from 3 independent blots and fold differences under different conditions were estimated after normalizing against an Erk 2 loading control.

[5] = system: UACC 903 cells; assay: Pretreatment of mice with BAY 43-9006, UACC 903 tumor development; type: in vivo, nude mice; settings: 50 mg/kg i.p.
Procedure: as §1

[6] = system: advanced stage melanoma; settings: cited from earlier work
[7] = system: UACC 903 tumors; assay: BAY 43-9006 on preexisting UACC 903 tumors in nude mice; type: in vivo
Procedure: as §2
(§3) It is currently unknown whether targeting mutant ^V599EB-Raf in established preexisting melanoma tumors could retard tumor development, and if so, whether the mechanism is the same as that occurring when targeting ^V599EB-Raf in cells prior to tumor formation. Therefore, we next examined whether pharmacologically targeting B-Raf in preexisting melanoma tumors would inhibit tumor development by a similar mechanism. Five million UACC 903 cells, one million 1205 Lu cells or five million C8161 cells were subcutaneously injected into 4- to 6-week old female nude mice. On day 6, vehicle (DMSO) or BAY 43-9006 compound dissolved in vehicle (10, 50 or 100 mg/kg) was administered to mice via intra peritoneal injection every 48 hours. A 48 hour time period between drug administrations was chosen since inhibitory effects on the MAP kinase signaling pathway in UACC 903, 1205 Lu and C8161 cells persisted for at least that period (data not shown). Size of the developing tumors was measured using calipers on alternate days and the results are shown for UACC 903 cells in FIG. 4A and 1205 Lu cells in FIG. 15B. While all concentrations of the BAY 43-9006 compound slowed UACC 903 tumor development, only concentrations ≧50 mg/kg caused tumor development to plateau 7 days following the start of treatment (FIG. 4B).

[8] = system: C8161 cells; assay: pMek and pErk levels in C8161 cells with BAY 43-9006; type: cell-based, human
[9] = system: C8161 cells; assay: BAY 43-9006 on preexisting C8161 tumors in nude mice; type: in vivo; settings: C8161 (data not shown)
Excerpt: as §3

[10] = system: UACC 903 cells; assay: BAY 43-9006 growth inhibition/IC-50 of UACC 903 melanoma cells (SRB); type: cell-based, human; settings: 72 hours; read-out: IC-50, concentration that reduced UACC 903 cell survival by half
Procedure: To measure the growth inhibitory effects or IC-50 of BAY 43-9006 on UACC 903 cells, 5×10^3 cells/well were plated into 96-well plates. Following 24 hours, varying concentrations of BAY 43-9006 (0, 0.02, 0.1, 0.4, 1.6, 6.3, 25, or 100 uM) was added to duplicate 8-strip wells in the plate. After 72 hours of growth at 37° C. in a 5% CO2 humidified atmosphere, media was discarded and cells were fixed in 10% trichloroacetic acid. Surviving cells at each concentrations of the drug were calculated using the SRB binding assay (Stahl J M et al. Cancer Res. 63: 2881-90 (2003)).

[11] = system: phosphorylated Erk; assay: In vivo pErk measurements in UACC 903 tumor sections (immunohistochemistry); design: species or system nude mice; settings: 50 mg/kg, 9 days after start of treatment
Procedure: To quantitate changes in pErk levels in formalin-fixed, paraffin-embedded tumor sections, antigen retrieval was performed with 0.01 M citrate buffer at pH 6.0 for 20 minutes in a 95° C. water bath. Slides were cooled for 20 minutes, rinsed in PBS and then incubated in 3% H2O2 for 10 minutes to quench endogenous peroxidase activity. Next, sections were blocked with 1% BSA for 30 minutes and incubated with anti-pERK antibody at a 1:100 dilution (Cell Signaling Technologies, Beverly, Mass.) overnight at 4° C. Following rinsing in PBS, sections were incubated with biotinylated anti rabbit IgG for 1 hour, rinsed again in PBS, and incubated with peroxidase labeled streptavidine for 30 minutes. […] The average percentage of cells±SEM that stained positive for pErk was counted from a minimum of 6 different tumors with 4-6 fields counted per tumor.
To confirm that the BAY 43-9006 compound affected activity of the mutant ^V599EB-Raf signaling pathway in tumors, the percentage of cells expressing elevated levels of phosphorylated Erk was scored in tumors from mice 9 days after start of treatment with vehicle (DMSO) or vehicle containing 50 mg/kg BAY 43-9006 (FIG. 15C).

[12] = system: 1205 Lu tumors; assay: BAY 43-9006 on preexisting 1205 Lu tumors in nude mice; type: in vivo; settings: 50 mg/kg
Procedure: as §1, with “43-9006.” for “43-9006. For temporal and spatial matching of control DMSO with drug treated tumors, either 1×10^6, 2.5×10^6 or 5×10^6 million UACC 903 cells were subcutaneously injected and from day 6 treated intra peritoneally with DMSO vehicle every 2 days. Drug or vehicle treated tumors of the same size developing in parallel were harvested at days 9, 11, 13 and 15 for comparison.”
It is currently unknown whether targeting mutant ^V599EB-Raf in established preexisting melanoma tumors could retard tumor development, and if so, whether the mechanism is the same as that occurring when targeting ^V599EB-Raf in cells prior to tumor formation. […] Size of the developing tumors was measured using calipers on alternate days and the results are shown for UACC 903 cells in FIG. 4A and 1205 Lu cells in FIG. 15B. […]

[13] = system: VEGF; assay: VEGF secretion ELISA, UACC 903 or 1205 Lu cells; type: cell-based, human; settings: BAY 43-9006 5, 10, 15 uM; UACC 903 and 1205 Lu
Procedure: To determine the amount of VEGF secreted by cells following siRNA-mediated knockdown of B-Raf protein or after treatment with BAY 43-9006, the human VEGF Quantikine kit (DVE00) was used (R&D Systems Inc., Minneapolis, Minn.). UACC 903 or 1205 Lu cells (5×10^5) nucleofected with the various siRNA were plated in 60 mm petri dishes and 24 hours later media replaced with DMEM containing 2% FBS. Following an additional 24 hours, media was again replaced and conditioned media for ELISA analysis was collected 24 and 48 hours later. For BAY 43-9006 studies. 3×10^5 UACC 903 or 1205 Lu cells were plated into 60 mm petri dishes and 24 hours later media was changed to DMEM containing 2% FBS. After an additional 24 hours, media was replaced with DMEM supplemented with 2% FBS alone or in combination with BAY 43-9006 (5, 10, 15 uM) or DMSO vehicle. After 12 or 24 hours, conditioned media was collected for ELISA analysis. The media was cleared by centrifugation at 14,000 rpm (4° C.) for 5 minutes and stored at −80° C. VEGF ELISA analysis was performed in triplicate on duplicate experiments according to the manufacturer's instructions.

CNC(=O)c1cc(Oc2ccc(NC(=O)Nc3ccc(Cl)c(C(F)(F)F)c3)cc2)ccn1 [BAY 43-9006]
Tumor development after pretreatment [1]: significantly inhibited | Tumor area occupied by apoptosis by day 15 ([2]; 50 mg/kg): up to 25% | Vessel development at day 9 vs vehicle ([2]; 50 mg/kg): statistically significant difference | Tumor area undergoing apoptosis by day 20 ([2]; 50 mg/kg (data not shown)): ~50% | Decrease in percentage of proliferating cells ([2]; preexisting tumors, 50 mg/kg): 32-57% | Persistence of inhibitory effects on MAP kinase signaling ([3]; UACC 903 and 1205 Lu cell lines): 2 to 3 days | Levels of phosphorylated (active) Mek and Erk ([3]; UACC 903 cells, 2 hours, increasing concentrations): dose responsive manner | Fold reduction of phosphorylated Erk [4]: 3-4 fold | Fold reduction of phosphorylated Mek [4]: 5-6 fold | Tumor development after pretreatment [5]: significantly inhibited | Efficacy of monotherapy ([6]; advanced stage melanoma patients, oral): relatively ineffective | Response rate in patients ([6]; in combination with paclitaxel and carboplatinum): 50% | Tumor size on day 27 ([7]; 10 mg/kg): > 2,400 mm^3 | Delay of tumor development ([7]; 10 mg/kg i.p. every 48 hours): ~1 week | Increase in tumor sizes from days 13-to-31 ([7]; UACC 903, after a week of drug treatment): no statistically significant increase | Tumor development plateau, days following the start of treatment ([7]; concentrations ≧50 mg/kg): 7 days | Concentrations that reduce the tumorigenic potential of melanoma cells containing mutant ^V599EB-Raf ([7]; i.p. every 2 days from day 6): ≥ 50 mg/kg | pMek and pErk levels [8]: inhibited | Kinetics of tumor formation [9]: no difference | IC50 [10]: 5 to 6 µM | Fold fewer pErk positive cells than vehicle treated tumors [11]: ~3 fold | Plateau in tumor size, days [12]: 17-to-31 days | VEGF secretion [13]: dose dependent manner
